Experimental data published in US8138168B1 (Takeda Pharmaceutical Company Limited, priority 2007, dated 2012).

These compounds were tested against T1, Recombinant human renin (Homo sapiens, UniProt P00797) (assay: In vitro enzymatic activity assay of renin inhibitors (fluorogenic peptide substrate)). Conditions: read-out: IC50 of Exemplified Compounds Against Renin.
T1 construct: isolate the active form (residues 67-406); made in house; host or cells: FreeStyle 293-F cells (transient expression of pcDNA3.1(+)/hREN)
T1 sequence (P00797 67-406): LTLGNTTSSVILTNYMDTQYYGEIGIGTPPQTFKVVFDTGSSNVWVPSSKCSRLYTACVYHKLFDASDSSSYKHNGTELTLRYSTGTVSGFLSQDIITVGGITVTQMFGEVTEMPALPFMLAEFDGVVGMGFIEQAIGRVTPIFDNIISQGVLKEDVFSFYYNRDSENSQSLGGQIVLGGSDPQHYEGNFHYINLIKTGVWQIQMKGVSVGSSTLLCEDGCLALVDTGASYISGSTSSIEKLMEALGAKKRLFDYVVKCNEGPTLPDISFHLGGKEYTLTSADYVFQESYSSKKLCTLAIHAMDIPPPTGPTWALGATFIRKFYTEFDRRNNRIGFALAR
Assay type: biochemical
Method in brief: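 Enzyme: recombinant human renin, 3 nM final, 10 min compound pre-incubation at 37 °C; buffer 50 mM Hepes pH 7.4 with 0.1 mg/mL BSA or extra 2% BSA; 5% DMSO.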
In the case of `COCCCn1c([C@@H]2CCCN(C(=O)C[C@H](N)Cc3cccnc3)C2)nc2ccccc21` [Compound 82, (R)-3-amino-1((R)-3-(1-(3-methoxypropyl)-1H-benzo[d]imidazol-2-yl)piperidin-1-yl)-4-(pyridin-3-yl)butan-1-one], the IC50 is reported as > 1000 nM.
With `COCCCn1c([C@@H]2CCCN(C(=O)C[C@H](N)c3cccc(Cl)c3)C2)nc2ccccc21` [Compound 83, (S)-3-amino-3-(3-chlorophenyl)-1((R)-3-(1-(3-methoxypropyl)-1H-benzo[d]imidazol-2-yl)piperidin-1-yl)propan-1-one] the IC50 was > 1000 nM.
Work on `COCCCn1c([C@@H]2CCCN(C(=O)C[C@H](N)c3cccc(C(F)(F)F)c3)C2)nc2ccccc21` [Compound 84, (S)-3-amino-1-((R)-3-(1-(3-methoxypropyl)-1H-benzo[d]imidazol-2-yl)piperidin-1-yl)-3-(3-(trifluoromethyl)phenyl)propan-1-one] yielded an IC50 of 100 to 1000 nM.
In the case of `COCCCn1c([C@@H]2CCCN(C(=O)C[C@H](N)c3cccc(C#N)c3)C2)nc2ccccc21` [Compound 85, 3-((S)-1-amino-3-((R)-3-(1-(3-methoxypropyl)-1H-benzo[d]imidazol-2-yl)piperidin-1-yl)-3-oxopropyl)benzonitrile], the IC50 is reported as > 1000 nM.
`COCCCn1c([C@@H]2CCCN(C(=O)C[C@H](N)Cc3cc(F)c(F)cc3F)C2)nc2ccccc21` [Compound 86, (R)-3-amino-1((R)-3-(1-(3-methoxypropyl)-1H-benzo[d]imidazol-2-yl)piperidin-1-yl)-4-(2,4,5-trifluorophenyl)butan-1-one] gave an IC50 of 100 to 1000 nM.
For `COCCCn1c([C@@H]2CCCN(C(=O)C[C@H](N)Cc3ccccc3)C2)nc2ccccc21` [Compound 87, (R)-3-amino-1((R)-3-(1-(3-methoxypropyl)-1H-benzo[d]imidazol-2-yl)piperidin-yl)-4-phenylbutan-1-one], the IC50 was 100 to 1000 nM.
With `COCCCn1c([C@@H]2CCCN(C(=O)C[C@H](N)COCc3ccccc3)C2)nc2ccccc21` [Compound 88, (S)-3-amino-4-(benzyloxy)-1-((R)-3-(1-(3-methoxypropyl)-1H-benzo[d]imidazol-2-yl)piperidin-1-yl)butan-1-one] the IC50 was > 1000 nM.
For `COCCCn1c([C@@H]2CCCN(C(=O)C[C@H](N)c3ccccc3)C2)nc2ccccc21` [Compound 89, (S)-3-amino-1((R)-3-(1-(3-methoxypropyl)-1H-benzo[d]imidazol-2-yl)piperidin-1-yl)-3-phenylpropan-1-one], the IC50 was > 1000 nM.
`COCCCn1c([C@@H]2CCCN(C(=O)C[C@H](N)Cc3ccc(C(C)(C)C)cc3)C2)nc2ccccc21` [Compound 90, (R)-3-amino-4-(4-tert-butylphenyl)-1((R)-3-(1-(3-methoxypropyl)-1H-benzo[d]imidazol-2-yl)piperidin-1-yl)butan-1-one] was tested, and the IC50 was < 100 nM.
`COCCCn1c([C@@H]2CCCN(C(=O)C[C@H](N)Cc3ccc(Br)cc3)C2)nc2ccccc21` [Compound 91, (R)-3-amino-4-(4-bromophenyl)-1((R)-3-(1-(3-methoxypropyl)-1H-benzo[d]imidazol-2-yl)piperidin-1-yl)butan-1-one] showed an IC50 of 100 to 1000 nM.
`COCCCn1c([C@@H]2CCCN(C(=O)[C@H](O)[C@H](N)c3ccccc3)C2)nc2ccccc21` [Compound 92, (2R,3R)-3-amino-2-hydroxy-1-((R)-3-(1-(3-methoxypropyl)-1H-benzo[d]imidazol-2-yl)piperidin-1-yl)-3-phenylpropan-1-one] showed an IC50 of 100 to 1000 nM.
`COCCCn1c([C@@H]2CCCN(C(=O)CC(CN)c3ccc(Cl)cc3)C2)nc2ccccc21` (stereo partly drawn) [Compound 93, 4-amino-3-(4-chlorophenyl)-1-((R)-3-(1-(3-methoxypropyl)-1H-benzo[d]imidazol-2-yl)piperidin-1-yl)butan-1-one] was tested, and the IC50 was > 1000 nM.
For `COCCCn1c([C@@H]2CCCN(C(=O)CC(N)C3CCNCC3)C2)nc2ccccc21` (stereo partly drawn) [Compound 94, 3-amino-1-((R)-3-(1-(3-methoxypropyl)-1H-benzo[d]imidazol-2-yl)piperidin-1-yl)-3-(piperidin-4-yl)propan-1-one], the IC50 was > 1000 nM.
